Measurements from ChEMBL document CHEMBL5143595, “Expanding the structure-activity relationship of cytotoxic diphenyl macrocycles” (Bioorg Med Chem Lett, 2022).

How the values were obtained:
[1] = tested on: U-251; test: Antiproliferative activity against human U-251 cells assessed as inhibition of cell growth at 10 uM incubated for 48 hrs by SRB assay relative to control; type: functional; set-up: scale not given: the % may be the effect or the level left
[2] = tested on: PC-3; test: Antiproliferative activity against human PC-3 cells assessed as inhibition of cell growth at 10 uM incubated for 48 hrs by SRB assay relative to control; type: functional; set-up: scale not given: the % may be the effect or the level left
[3] = tested on: K562; test: Antiproliferative activity against human K562 cells assessed as inhibition of cell growth at 10 uM incubated for 48 hrs by SRB assay relative to control; type: functional; set-up: scale not given: the % may be the effect or the level left
[4] = tested on: HCT-15; test: Antiproliferative activity against human HCT-15 cells assessed as inhibition of cell growth at 10 uM incubated for 48 hrs by SRB assay relative to control; type: functional; set-up: scale not given: the % may be the effect or the level left
[5] = tested on: MCF7; test: Antiproliferative activity against human MCF7 cells assessed as inhibition of cell growth at 10 uM incubated for 48 hrs by SRB assay relative to control; type: functional; set-up: scale not given: the % may be the effect or the level left
[6] = tested on: SK-LU-1; test: Antiproliferative activity against human SK-LU-1 cells assessed as inhibition of cell growth at 10 uM incubated for 48 hrs by SRB assay relative to control; type: functional; set-up: scale not given: the % may be the effect or the level left
[7] = Antiproliferative activity against African green monkey COS-7 cells assessed as inhibition of cell growth at 10 uM incubated for 48 hrs by SRB assay relative to control; type: toxicity, cell-based; details: chlorocebus aethiops, read-out: Activity
[8] = tested on: U-251; test: Antiproliferative activity against human U-251 cells assessed as inhibition of cell growth incubated for 48 hrs by SRB assay; type: functional, cell-based; details: U-251, 48 h
[9] = tested on: K562; test: Antiproliferative activity against human K562 cells assessed as inhibition of cell growth incubated for 48 hrs by SRB assay; type: functional, cell-based; details: K562, 48 h
[10] = tested on: SK-LU-1; test: Antiproliferative activity against human SK-LU-1 cells assessed as inhibition of cell growth incubated for 48 hrs by SRB assay; type: functional, cell-based; details: SK-LU-1, 48 h

IC50 [8] [µM] | IC50 [9] [µM] | IC50 [10] [µM] | Compound | Activity [1] [%] | Activity [2] [%] | Activity [3] [%] | Activity [4] [%] | Activity [5] [%] | Activity [6] [%] | inhibition at 48 h, 10 µM [7] [%]
 |  |  | CCCCCCCCCCNC(=O)C(c1ccc(F)cc1)N1CCCCN(CC(=O)NC(C)(C)C)C(=O)c2cccc(c2)-c2cccc(c2)C1=O (racemic) | 19.3 | 15.1 | 64 | 67.2 | 47.3 | 31.8 | 24.3
 |  |  | CCCCCCCCCCNC(=O)C(c1ccoc1)N1CCCCN(CC(=O)NC(C)(C)C)C(=O)c2cccc(c2)-c2cccc(c2)C1=O (racemic) | 27.5 | 35 | 36.6 | 38.5 | 29.5 | 18.8 | 22.8
 |  |  | CCCCCCCCCCCCNC(=O)C(c1ccc(OC)cc1C)N1CCCCN(CC(=O)NC(C)(C)C)C(=O)c2cccc(c2)-c2cccc(c2)C1=O (racemic) | 23.1 |  | 5.2 | 28 |  | 29 | 31.3
 |  |  | CCCCCCCCCNC(=O)CN1CCCCN(CC(=O)NC(C)(C)C)C(=O)c2cccc(c2)-c2cccc(c2)C1=O | 16 | 66.9 | 44 | 55.1 | 45.6 | 45.3 | 52.4
 |  |  | CCCCCCCCCCCCNC(=O)C(c1ccc(C(F)(F)F)cc1)N1CCCCN(CC(=O)NC(C)(C)C)C(=O)c2cccc(c2)-c2cccc(c2)C1=O (racemic) | 47.2 | 18.6 | 100 | 30.3 | 75.3 | 76.5 | 38
 |  |  | CCCCCCCCCCCCNC(=O)C(c1ccccc1)N1CCCCN(CC(=O)NC(C)(C)C)C(=O)c2cccc(c2)-c2cccc(c2)C1=O (racemic) |  | 32.6 | 41.3 | 27.7 | 29.5 | 28.5 | 21.1
 |  |  | CCCCCCCCCCCCNC(=O)C(c1ccc(F)cc1)N1CCCCN(CC(=O)NC(C)(C)C)C(=O)c2cccc(c2)-c2cccc(c2)C1=O (racemic) | 76.9 | 21.3 | 59.6 | 42.9 | 41.5 | 18.8 | 40.8
5.9 | 4 | 7.6 | CCCCCCCCCCCCNC(=O)CN1CCCCN(CC(=O)NC(C)(C)C)C(=O)c2cccc(c2)-c2cccc(c2)C1=O |  |  |  |  |  |  | 
 |  |  | CCCCCCCCCCCCNC(=O)C(c1ccc(OC)cc1)N1CCCCN(CC(=O)NC(C)(C)C)C(=O)c2cccc(c2)-c2cccc(c2)C1=O (racemic) | 50.1 | 46.2 | 56.1 | 22 | 23.6 | 37.8 | 33
 |  |  | CCCCCCCCCCCCNC(=O)C(c1ccc(C)cc1)N1CCCCN(CC(=O)NC(C)(C)C)C(=O)c2cccc(c2)-c2cccc(c2)C1=O (racemic) | 48 | 21.1 | 40.7 | 19.9 | 4.8 | 32.4 | 34.8
 |  |  | CCCCCCCCCCCCNC(=O)C(c1ccc(SC)cc1)N1CCCCN(CC(=O)NC(C)(C)C)C(=O)c2cccc(c2)-c2cccc(c2)C1=O (racemic) | 20 | 28.5 | 34.9 | 18.3 | 45 | 45.6 | 35.5
 |  |  | CCCCCCCCCCCNC(=O)CN1CCCCN(CC(=O)NC(C)(C)C)C(=O)c2cccc(c2)-c2cccc(c2)C1=O | 10.8 | 44.4 | 42 | 51 | 5.3 | 23.2 | 28.1
 |  |  | CCCCCCCCNC(=O)CN1CCCCN(CC(=O)NC(C)(C)C)C(=O)c2cccc(c2)-c2cccc(c2)C1=O | 20.5 | 46.5 | 24.4 | 26.7 | 31.7 | 9.6 | 19.7
 |  |  | CCCCCCCCCCCCNC(=O)C(c1cc(C)ccc1F)N1CCCCN(CC(=O)NC(C)(C)C)C(=O)c2cccc(c2)-c2cccc(c2)C1=O (racemic) | 15.7 | 9.5 | 29 | 31.7 | 15.2 | 3.1 | 20.2
 |  |  | CCCCCCCCCCCCNC(=O)C(c1cc(OC)c(OC)c(OC)c1)N1CCCCN(CC(=O)NC(C)(C)C)C(=O)c2cccc(c2)-c2cccc(c2)C1=O (racemic) | 11.4 | 33.9 | 24 | 31.5 |  | 34.4 | 25.6
 |  |  | CCCCCCCCCCNC(=O)C(c1ccco1)N1CCCCN(CC(=O)NC(C)(C)C)C(=O)c2cccc(c2)-c2cccc(c2)C1=O (racemic) | 25.5 | 25.8 | 28 | 26 | 25.7 | 25.3 | 21.6
 |  |  | CCCCCCCCCCNC(=O)CN1CCCCN(CC(=O)NC(C)(C)C)C(=O)c2cccc(c2)-c2ccc(O)c(c2)C1=O | 49.3 | 19.5 | 55.3 | 28.6 | 27.1 | 27.7 | 41.8
 | 8.2 | 4.7 | CCCCCCCNC(=O)CN1CCCCN(CC(=O)NC(C)(C)C)C(=O)c2cccc(c2)-c2cccc(c2)C1=O | 99.2 | 97.2 | 79.3 | 77.9 | 70.9 | 88.6 | 7.6
 |  |  | CCCCCCCCCCNC(=O)CN1CCCCN(CC(=O)NC(C)(C)C)C(=O)c2cccc(c2)-c2cccc(c2)C1=O | 16.1 | 59.9 | 38 | 65.5 | 72.1 | 50.4 | 17.8
 |  |  | CCCCCCCCCCCCNC(=O)C(c1ccc(Cl)cc1)N1CCCCN(CC(=O)NC(C)(C)C)C(=O)c2cccc(c2)-c2cccc(c2)C1=O (racemic) | 71.3 | 14.4 | 42.6 | 24.3 | 72.2 | 52.3 | 42.2
 | 11.3 |  | COc1cc([C@@H]2c3cc4c(cc3[C@@H](O[C@@H]3O[C@@H]5CO[C@@H](C)O[C@H]5[C@H](O)[C@H]3O)[C@H]3COC(=O)[C@H]23)OCO4)cc(OC)c1O [ETOPOSIDE] |  |  |  |  |  |  | 
 |  |  | CCCCCCCCCCCCNC(=O)C(c1ccc(O)cc1OC)N1CCCCN(CC(=O)NC(C)(C)C)C(=O)c2cccc(c2)-c2cccc(c2)C1=O (racemic) | 48.5 | 37.6 | 60.9 | 27.3 | 38.9 | 45.1 | 26.1
 |  |  | CCCCCCCCCCCCNC(=O)C(c1ccc([N+](=O)[O-])cc1)N1CCCCN(CC(=O)NC(C)(C)C)C(=O)c2cccc(c2)-c2cccc(c2)C1=O (racemic) | 34.5 | 17.1 | 29 | 22.8 | 31.2 | 45.2 | 17.5
 |  |  | CCCCCCCCCCCCNC(=O)C(c1ccco1)N1CCCCN(CC(=O)NC(C)(C)C)C(=O)c2cccc(c2)-c2cccc(c2)C1=O (racemic) | 21.9 | 13.5 | 19.8 | 26.8 | 51.3 | 34.9 | 35.8
 |  |  | CCCCCCCCCCCCNC(=O)C(c1ccoc1)N1CCCCN(CC(=O)NC(C)(C)C)C(=O)c2cccc(c2)-c2cccc(c2)C1=O (racemic) | 27.5 | 48.9 | 48.8 | 34.3 | 66.1 | 32.3 | 27.5
 |  |  | CCCCCCNC(=O)CN1CCCCN(CC(=O)NC(C)(C)C)C(=O)c2cccc(c2)-c2cccc(c2)C1=O | 58.5 | 19.3 | 60.1 | 32.4 |  | 74.9 | 40
